Calls of active or inactive are those of the source. The rule behind the calls is not given here.
Assays:
[1] = target: Phosphatidylinositol 4,5-bisphosphate 3-kinase catalytic subunit beta isoform (Homo sapiens) (UniProt P42338); test: Inhibition of PIK3CB ATP labeling site in human Huh-7 cells at 1 uM by KiNativ Profiling analysis relative to control; format: cell-based
[2] = target: Peripheral plasma membrane protein CASK (Homo sapiens) (UniProt O14936); test: Inhibition of CASK Lys1 labeling site in human A-375 cells at 5 uM by KiNativ Profiling analysis relative to control
Chain of Peripheral plasma membrane protein CASK (Homo sapiens) (O14936 whole entry, looked up): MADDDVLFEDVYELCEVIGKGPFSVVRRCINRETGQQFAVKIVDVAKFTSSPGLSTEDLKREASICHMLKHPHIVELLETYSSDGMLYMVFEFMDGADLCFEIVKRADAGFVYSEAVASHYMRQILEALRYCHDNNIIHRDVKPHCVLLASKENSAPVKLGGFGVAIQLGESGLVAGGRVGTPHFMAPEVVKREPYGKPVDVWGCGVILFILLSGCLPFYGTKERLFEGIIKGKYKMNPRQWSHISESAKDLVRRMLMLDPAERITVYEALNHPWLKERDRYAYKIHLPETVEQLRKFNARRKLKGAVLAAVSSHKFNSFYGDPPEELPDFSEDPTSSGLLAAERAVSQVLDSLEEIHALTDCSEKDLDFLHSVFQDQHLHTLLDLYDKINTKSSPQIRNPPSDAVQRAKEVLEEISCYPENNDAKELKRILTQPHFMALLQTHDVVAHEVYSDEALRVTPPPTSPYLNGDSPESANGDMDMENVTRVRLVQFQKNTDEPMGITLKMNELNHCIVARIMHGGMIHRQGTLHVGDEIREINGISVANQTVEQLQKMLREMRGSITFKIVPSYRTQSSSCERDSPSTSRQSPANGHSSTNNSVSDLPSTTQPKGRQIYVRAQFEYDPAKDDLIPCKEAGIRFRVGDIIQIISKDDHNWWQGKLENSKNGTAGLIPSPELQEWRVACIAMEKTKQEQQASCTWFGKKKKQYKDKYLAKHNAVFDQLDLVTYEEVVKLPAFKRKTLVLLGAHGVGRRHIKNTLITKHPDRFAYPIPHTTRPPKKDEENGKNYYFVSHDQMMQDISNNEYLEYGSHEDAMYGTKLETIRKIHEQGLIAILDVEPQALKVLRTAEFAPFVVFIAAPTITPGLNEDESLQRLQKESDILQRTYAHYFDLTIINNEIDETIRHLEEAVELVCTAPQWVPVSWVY

[3] = target: Myosin light chain kinase family member 4 (Homo sapiens) (UniProt Q86YV6); test: Inhibition of SgK085 (unknown origin) at 10 uM by Ambit Kinomescan binding assay
[4] = target: Myosin light chain kinase 2, skeletal/cardiac muscle (Homo sapiens) (UniProt Q9H1R3); test: Inhibition of MYLK2 (unknown origin) at 10 uM by Ambit Kinomescan binding assay relative to control
Chain of Myosin light chain kinase 2, skeletal/cardiac muscle (Homo sapiens) (Q9H1R3 whole entry): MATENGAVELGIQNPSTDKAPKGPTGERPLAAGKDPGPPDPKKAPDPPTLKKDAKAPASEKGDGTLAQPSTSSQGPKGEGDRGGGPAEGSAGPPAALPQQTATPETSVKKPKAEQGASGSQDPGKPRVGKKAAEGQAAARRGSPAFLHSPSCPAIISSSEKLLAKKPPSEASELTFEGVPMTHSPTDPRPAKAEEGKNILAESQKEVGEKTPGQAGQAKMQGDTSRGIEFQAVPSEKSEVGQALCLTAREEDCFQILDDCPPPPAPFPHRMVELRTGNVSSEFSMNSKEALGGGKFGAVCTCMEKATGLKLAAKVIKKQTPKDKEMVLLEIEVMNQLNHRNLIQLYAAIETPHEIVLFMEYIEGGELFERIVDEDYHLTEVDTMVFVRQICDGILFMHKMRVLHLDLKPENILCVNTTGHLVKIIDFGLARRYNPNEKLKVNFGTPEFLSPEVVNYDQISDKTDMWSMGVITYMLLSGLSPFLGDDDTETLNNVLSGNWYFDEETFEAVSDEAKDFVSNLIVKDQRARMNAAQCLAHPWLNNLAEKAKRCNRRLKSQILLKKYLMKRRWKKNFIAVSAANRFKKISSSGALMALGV

[5] = target: RAC-alpha serine/threonine-protein kinase (Homo sapiens) (UniProt P31749); test: Inhibition of AKT1 (unknown origin) at 10 uM by Ambit Kinomescan binding assay
[6] = target: Serine/threonine-protein kinase PLK4 (Homo sapiens) (UniProt O00444); test: Inhibition of PLK4 (unknown origin) at 10 uM by Ambit Kinomescan binding assay
[7] = target: eIF-2-alpha kinase GCN2 (Homo sapiens) (UniProt Q9P2K8); test: Inhibition of GCN2 K2 labeling site in human Huh-7 cells at 1 uM by KiNativ Profiling analysis relative to control; format: cell-based
[8] = target: T1, Serine/threonine-protein kinase Nek9 (Homo sapiens) (UniProt Q8TD19); test: Inhibition of NEK9 (unknown origin) at 10 uM by Ambit Kinomescan binding assay
T1 sequence (whole entry): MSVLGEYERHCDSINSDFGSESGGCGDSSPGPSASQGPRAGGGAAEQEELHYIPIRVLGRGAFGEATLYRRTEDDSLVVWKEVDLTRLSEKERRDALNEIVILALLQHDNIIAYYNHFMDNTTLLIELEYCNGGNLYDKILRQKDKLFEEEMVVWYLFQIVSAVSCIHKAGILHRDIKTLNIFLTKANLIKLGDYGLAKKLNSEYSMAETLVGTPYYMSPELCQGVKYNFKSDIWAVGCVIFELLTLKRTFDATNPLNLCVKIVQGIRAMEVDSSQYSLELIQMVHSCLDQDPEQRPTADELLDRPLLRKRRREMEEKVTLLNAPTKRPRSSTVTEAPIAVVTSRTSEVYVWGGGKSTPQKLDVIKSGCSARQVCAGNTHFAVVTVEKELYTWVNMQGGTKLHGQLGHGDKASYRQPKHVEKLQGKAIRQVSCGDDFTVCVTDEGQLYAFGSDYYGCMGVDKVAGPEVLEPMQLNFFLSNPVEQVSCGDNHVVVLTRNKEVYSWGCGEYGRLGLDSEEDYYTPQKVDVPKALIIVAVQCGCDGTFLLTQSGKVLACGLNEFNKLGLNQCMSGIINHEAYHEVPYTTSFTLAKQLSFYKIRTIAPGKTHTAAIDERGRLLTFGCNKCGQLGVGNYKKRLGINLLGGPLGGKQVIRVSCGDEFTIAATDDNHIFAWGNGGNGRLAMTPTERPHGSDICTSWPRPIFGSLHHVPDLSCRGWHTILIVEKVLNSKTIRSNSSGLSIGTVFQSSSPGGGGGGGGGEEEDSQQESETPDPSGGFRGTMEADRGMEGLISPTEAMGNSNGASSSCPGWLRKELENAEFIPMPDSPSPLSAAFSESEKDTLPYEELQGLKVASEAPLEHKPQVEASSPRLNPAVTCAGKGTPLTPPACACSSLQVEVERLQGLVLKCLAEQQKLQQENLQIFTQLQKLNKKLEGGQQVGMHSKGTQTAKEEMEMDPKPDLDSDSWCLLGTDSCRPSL

[9] = target: Serine/threonine-protein kinase 38 (Homo sapiens) (UniProt Q15208); test: Inhibition of NDR1 ACT labeling site in human A-375 cells at 5 uM by KiNativ Profiling analysis relative to control; format: cell-based
[10] = target: Serine/threonine-protein kinase 4 (Homo sapiens) (UniProt Q13043); test: Inhibition of MST1 Lys1 labeling site harbouring ETGQIVAIKQVPVESDLQEIIK in human A-375 cells at 0.5 uM by KiNativ Profiling analysis relative to control
Chain of Serine/threonine-protein kinase 4 (Homo sapiens) (Q13043 whole entry, looked up): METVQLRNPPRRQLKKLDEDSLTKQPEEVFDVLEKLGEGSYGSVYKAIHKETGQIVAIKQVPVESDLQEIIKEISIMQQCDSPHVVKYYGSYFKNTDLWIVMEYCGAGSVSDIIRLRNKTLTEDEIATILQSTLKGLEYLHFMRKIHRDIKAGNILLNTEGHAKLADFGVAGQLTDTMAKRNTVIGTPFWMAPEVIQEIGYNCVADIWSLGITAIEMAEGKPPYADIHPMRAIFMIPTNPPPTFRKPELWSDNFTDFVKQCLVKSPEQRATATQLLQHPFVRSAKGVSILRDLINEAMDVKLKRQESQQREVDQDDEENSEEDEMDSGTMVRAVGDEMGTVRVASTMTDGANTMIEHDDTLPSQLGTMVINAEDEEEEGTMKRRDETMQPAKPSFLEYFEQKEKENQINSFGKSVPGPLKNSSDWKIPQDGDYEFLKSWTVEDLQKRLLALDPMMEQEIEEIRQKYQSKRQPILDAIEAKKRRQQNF

[11] = tested on: Tyrosine-protein kinase ABL1 (Homo sapiens), P00519 [E255K]; test: Inhibition of phosphorylated ABL1 E255K mutant (unknown origin) at 1 uM by Ambit Kinomescan binding assay relative to control; values are per cent of control
Chain of Tyrosine-protein kinase ABL1 (Homo sapiens), P00519 [E255K] (P00519 whole entry E255K): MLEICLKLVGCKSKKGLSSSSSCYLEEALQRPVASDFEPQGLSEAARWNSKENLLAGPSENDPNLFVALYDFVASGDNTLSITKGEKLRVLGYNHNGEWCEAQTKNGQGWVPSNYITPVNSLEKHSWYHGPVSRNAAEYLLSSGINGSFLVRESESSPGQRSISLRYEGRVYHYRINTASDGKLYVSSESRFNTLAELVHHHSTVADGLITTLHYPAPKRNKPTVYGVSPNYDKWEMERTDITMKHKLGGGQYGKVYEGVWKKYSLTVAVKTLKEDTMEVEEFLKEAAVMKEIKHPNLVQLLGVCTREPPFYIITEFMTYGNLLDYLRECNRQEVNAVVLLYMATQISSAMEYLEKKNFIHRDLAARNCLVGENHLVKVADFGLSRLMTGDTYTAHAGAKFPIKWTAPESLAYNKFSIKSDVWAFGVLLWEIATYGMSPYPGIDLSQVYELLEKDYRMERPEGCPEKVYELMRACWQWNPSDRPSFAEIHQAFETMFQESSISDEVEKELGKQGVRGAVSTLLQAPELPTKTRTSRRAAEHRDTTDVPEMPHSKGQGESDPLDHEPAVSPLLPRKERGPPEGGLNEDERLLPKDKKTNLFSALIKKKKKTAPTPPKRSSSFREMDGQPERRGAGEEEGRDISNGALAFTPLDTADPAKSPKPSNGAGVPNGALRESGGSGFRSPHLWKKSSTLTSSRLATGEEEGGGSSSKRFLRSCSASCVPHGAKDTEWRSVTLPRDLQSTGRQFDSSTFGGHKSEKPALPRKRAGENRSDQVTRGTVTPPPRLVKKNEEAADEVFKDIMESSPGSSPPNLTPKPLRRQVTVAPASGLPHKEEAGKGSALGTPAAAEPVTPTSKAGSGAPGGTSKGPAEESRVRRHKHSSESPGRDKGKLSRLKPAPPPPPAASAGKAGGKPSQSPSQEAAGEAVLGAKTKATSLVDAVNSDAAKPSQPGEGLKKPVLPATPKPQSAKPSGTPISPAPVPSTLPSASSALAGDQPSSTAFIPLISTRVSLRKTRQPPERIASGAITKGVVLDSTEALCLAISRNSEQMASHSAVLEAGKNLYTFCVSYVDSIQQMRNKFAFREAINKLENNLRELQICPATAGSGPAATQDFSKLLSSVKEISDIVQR

[12] = target: High affinity nerve growth factor receptor (Homo sapiens) (UniProt P04629); test: Inhibition of TRKA (unknown origin) at 1 uM by Ambit Kinomescan binding assay relative to control
[13] = target: Cyclin-dependent kinase 1 (Homo sapiens) (UniProt P06493); test: Inhibition of CDC2 Lys1 labeling site in human Huh-7 cell lysate at 1 uM by KiNativ Profiling analysis relative to control; format: subcellular
Chain of Cyclin-dependent kinase 1 (Homo sapiens) (P06493 whole entry, looked up): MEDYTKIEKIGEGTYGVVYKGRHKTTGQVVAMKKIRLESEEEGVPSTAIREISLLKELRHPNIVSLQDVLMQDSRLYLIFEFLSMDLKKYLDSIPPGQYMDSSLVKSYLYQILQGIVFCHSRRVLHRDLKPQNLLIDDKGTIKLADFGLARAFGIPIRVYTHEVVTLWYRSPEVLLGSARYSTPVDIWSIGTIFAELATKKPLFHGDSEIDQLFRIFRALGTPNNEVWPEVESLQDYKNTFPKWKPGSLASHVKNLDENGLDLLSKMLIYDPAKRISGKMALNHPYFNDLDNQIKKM

[14] = target: Calcium/calmodulin-dependent protein kinase type II subunit delta (Homo sapiens) (UniProt Q13557); test: Inhibition of CaMK2d Lys2 labeling site in human Huh-7 cell lysate at 1 uM by KiNativ Profiling analysis relative to control; format: subcellular
[15] = target: Mitogen-activated protein kinase kinase kinase 11 (Homo sapiens) (UniProt Q16584); test: Inhibition of MLK3 Lys2 labeling site in human Huh-7 cells at 1 uM by KiNativ Profiling analysis relative to control; format: cell-based
[16] = target: Microtubule-associated serine/threonine-protein kinase 2 (Homo sapiens) (UniProt Q6P0Q8); test: Inhibition of MAST2 Lys2 labeling site harbouring DLKPDNLLITSMGHIK in human Huh-7 cell lysate at 1 uM by KiNativ Profiling analysis relative to control; format: subcellular
[17] = target: Ribosomal protein S6 kinase alpha-3 (Homo sapiens) (UniProt P51812); test: Inhibition of RSK2 domain2 Lys2 labeling site harbouring DLKPSNILYVDESGNPESIR in human Huh-7 cells at 1 uM by KiNativ Profiling analysis relative to control; format: cell-based
[18] = target: Tyrosine-protein kinase CSK (Homo sapiens, UniProt P41240); test: Inhibition of CSK ACT labeling site harbouring EASSTQDTGKLPVKWTAPEALR in human Huh-7 cell lysate at 1 uM by KiNativ Profiling analysis relative to control; format: subcellular
Chain of Tyrosine-protein kinase CSK (P41240 2-450 limits assumed): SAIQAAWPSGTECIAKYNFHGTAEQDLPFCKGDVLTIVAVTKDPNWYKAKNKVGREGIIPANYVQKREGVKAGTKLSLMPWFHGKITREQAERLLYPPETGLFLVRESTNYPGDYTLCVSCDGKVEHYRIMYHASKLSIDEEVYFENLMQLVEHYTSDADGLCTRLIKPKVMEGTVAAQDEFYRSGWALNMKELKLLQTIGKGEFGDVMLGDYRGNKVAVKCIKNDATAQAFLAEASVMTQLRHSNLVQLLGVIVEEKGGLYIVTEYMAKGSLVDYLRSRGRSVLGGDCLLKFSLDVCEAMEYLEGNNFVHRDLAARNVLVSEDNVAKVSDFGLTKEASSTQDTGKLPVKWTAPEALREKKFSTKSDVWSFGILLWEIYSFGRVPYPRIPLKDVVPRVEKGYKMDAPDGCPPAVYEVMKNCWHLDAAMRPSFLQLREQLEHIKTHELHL

Chain of Phosphatidylinositol 4,5-bisphosphate 3-kinase catalytic subunit beta isoform (Homo sapiens) (P42338 whole entry, looked up, canonical isoform): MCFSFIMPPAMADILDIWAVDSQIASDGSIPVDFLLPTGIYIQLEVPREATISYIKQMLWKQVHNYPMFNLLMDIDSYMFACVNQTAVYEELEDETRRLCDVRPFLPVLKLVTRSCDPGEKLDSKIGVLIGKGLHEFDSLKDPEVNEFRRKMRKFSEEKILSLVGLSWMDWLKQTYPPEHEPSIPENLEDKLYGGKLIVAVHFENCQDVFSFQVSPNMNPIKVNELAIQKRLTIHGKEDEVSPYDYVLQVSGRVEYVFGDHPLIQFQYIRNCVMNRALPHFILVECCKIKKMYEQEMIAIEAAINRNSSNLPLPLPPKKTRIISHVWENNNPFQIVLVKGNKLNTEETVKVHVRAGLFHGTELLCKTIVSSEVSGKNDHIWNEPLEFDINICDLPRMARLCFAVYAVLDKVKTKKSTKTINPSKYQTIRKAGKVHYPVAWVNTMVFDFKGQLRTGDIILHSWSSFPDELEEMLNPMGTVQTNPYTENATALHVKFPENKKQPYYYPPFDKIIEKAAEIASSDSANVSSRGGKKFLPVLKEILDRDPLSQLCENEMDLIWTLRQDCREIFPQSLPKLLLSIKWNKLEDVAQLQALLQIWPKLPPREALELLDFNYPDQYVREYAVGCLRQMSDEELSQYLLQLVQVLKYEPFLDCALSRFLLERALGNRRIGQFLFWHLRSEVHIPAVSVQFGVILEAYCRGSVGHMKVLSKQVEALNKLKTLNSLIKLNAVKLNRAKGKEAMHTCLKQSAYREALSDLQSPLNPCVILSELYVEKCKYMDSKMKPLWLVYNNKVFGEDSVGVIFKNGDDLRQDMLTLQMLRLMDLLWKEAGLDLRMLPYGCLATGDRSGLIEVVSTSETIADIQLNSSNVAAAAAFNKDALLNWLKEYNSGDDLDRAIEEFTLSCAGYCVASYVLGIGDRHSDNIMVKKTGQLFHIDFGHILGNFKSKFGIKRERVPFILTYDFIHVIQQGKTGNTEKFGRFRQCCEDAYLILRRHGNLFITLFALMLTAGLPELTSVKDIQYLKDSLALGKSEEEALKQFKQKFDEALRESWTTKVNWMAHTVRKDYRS

## CCN1CCN(Cc2ccc(NC(=O)c3ccc(C)c(Oc4ccnc5[nH]ccc45)c3)cc2C(F)(F)F)CC1
[1]
  inhibition: inactive
[2]
  inhibition: 6.6%
[3]
  inhibition: inactive
[4]
  inhibition: 8.4%
[5]
  inhibition: inactive
[6]
  inhibition: inactive
[7]
  inhibition: 12%
[8]
  inhibition: inactive

## CCN1CCN(Cc2ccc(NC(=O)c3ccc(C)c(/C=C/c4cnc5[nH]ccc5c4OC)c3)cc2C(F)(F)F)CC1
[9]
  inhibition: -2.6%
[10]
  inhibition: 17.4%
[11]
  percent of control: 0.85%
[12]
  inhibition: 54%

## CNc1cc(Oc2cc(C(=O)Nc3cc(N4CCN(C)CC4)cc(C(F)(F)F)c3)ccc2C)ncn1
[13]
  inhibition: 21.5%
[14]
  inhibition: 0.7%
[15]
  inhibition: 15%
[16]
  inhibition: 7.2%
[17]
  inhibition: 11.7%
[18]
  inhibition: 0.4%
